Results: publication doi:10.1101/2025.02.17.638454, “Synergistic RAS-MAPK and AKT Activation in MYC-Driven Tumors via Adjacent PVT1 Rearrangements” (bioRxiv, 2025)
No end group written: not given here.

How the values were obtained:
[1] = tested on: SK-PN-DW cells; test: Proliferation assay SK-PN-DW; type: cell-based, human; conditions: si.CircPVT1 vs si.Ctrl, n=3, two-way ANOVA, P<0.0001
Text: Cancer cell lines: COLO-320DM, SK-PN-DW, U2OS, BxPC-3, DU145, SKBR-3 and, NCI-H1792 were obtained from American Type Culture Collection (Rockville, MD) and grown in their required growth medium per the American Type Culture Collection description. D458 and MB002 were obtained from Dr. Michael Taylor’s lab at SickKids hospital, Toronto. Cell line identity for the master stocks were verified by STR genotyping (IDEXX BioResearch)

[2] = tested on: MYC; test: q-RT-PCR of MYC transcript in COLO-320DM; type: cell-based, human; conditions: COLO320DM, induction of HNB (-/+ Dox); n=3, unpaired t-test, 0.0011
Method: Total RNA was extracted with the TRIzol (Roche, Indianapolis, IN) as described by the manufacturer and complementary DNA synthesis, 1 μg of total RNA was reverse transcribed by using the GoScriptTM Reverse Transcription Mix, Random Primer Protocol (Promega, Madison, WI). Real-time PCR was run in triplicate using PowerUpTM SYBRTM Green Master Mix (Thermo Fisher Scientific), following the manufacturer’s instructions. Real-time PCR amplification monitoring was performed using the CFX96 Touch Real-Time PCR Detection System (Bio-Rad). Data were expressed as relative mRNA levels normalized to the GAPDH, served as endogenous normalization control expression levels in each sample, and are represented as mean ± standard error of the mean between 2 independent experiments unless otherwise indicated in the figure legend. The primer sequences are listed in the Supplementary Table.
The HNB ORF and eGFP (control) were cloned in an inducible lentivirus expression, TRE-gateway plasmid (pLIX_403, Addgene, #41395). Lentivirus was produced in HEK293T cells using the protocol described above. […] The protein lysates were collected and quantified using the previously described protocol. […] Bound proteins were detected with horseradish-peroxidase–conjugated secondary antibodies (Cell Signaling Technologies) and SuperSignal West Femto (Thermo Fisher Scientific). […]

| Substance | cellular proliferation [1] | MYC mRNA level [2] |
| --- | --- | --- |
| si.CircPVT1: siRNA targeting the junction sequence of CircPVT1, 5’-UGGGCUUGAGGCCUGAUCUUU-3’ (other strand not given here) | reduced cellular proliferation |  |
| MKTQLGAVKGFLHV [HNB] |  | significantly reduced MYC expression at the mRNA as well as the protein levels |
